Laboratory results published in ChEMBL document CHEMBL1150788, “In vitro susceptibility of Sporothrix schenckii to six antifungal agents determined using three different methods” (2007).

What was measured:
Type in all cases: functional
Sporothrix schenckii [1] = test: Antifungal activity against Sporothrix schenckii P0019 isolate from cutaneous-lymphatic sporotrichosis patient after 72 hrs by modified NCCLS M38-A method
Sporothrix schenckii [2] = test: Antifungal activity against Sporothrix schenckii P0019 isolate from cutaneous-lymphatic sporotrichosis patient after 72 hrs by Sensititre YeastOne method
Sporothrix schenckii [3] = test: Antifungal activity against Sporothrix schenckii P0019 isolate from cutaneous-lymphatic sporotrichosis patient after 72 hrs by ATB Fungus 2 method
Sporothrix schenckii [4] = test: Antifungal activity against Sporothrix schenckii PSSA81 isolate from cutaneous-lymphatic sporotrichosis patient after 72 hrs by modified NCCLS M38-A method
Sporothrix schenckii [5] = test: Antifungal activity against Sporothrix schenckii PSSA81 isolate from cutaneous-lymphatic sporotrichosis patient after 72 hrs by Sensititre YeastOne method
Sporothrix schenckii [6] = test: Antifungal activity against Sporothrix schenckii P25013 isolate from cutaneous-lymphatic sporotrichosis patient after 72 hrs by modified NCCLS M38-A method
Sporothrix schenckii [7] = test: Antifungal activity against Sporothrix schenckii P25013 isolate from cutaneous-lymphatic sporotrichosis patient after 72 hrs by Sensititre YeastOne method
Sporothrix schenckii [8] = test: Antifungal activity against Sporothrix schenckii P25013 isolate from cutaneous-lymphatic sporotrichosis patient after 72 hrs by ATB Fungus 2 method
Sporothrix schenckii [9] = test: Antifungal activity against Sporothrix schenckii P20825 isolate from cutaneous-lymphatic sporotrichosis patient after 72 hrs by modified NCCLS M38-A method
Sporothrix schenckii [10] = test: Antifungal activity against Sporothrix schenckii P20825 isolate from cutaneous-lymphatic sporotrichosis patient after 72 hrs by ATB Fungus 2 method
Sporothrix schenckii [11] = test: Antifungal activity against Sporothrix schenckii P30019 isolate from cutaneous-lymphatic sporotrichosis patient after 72 hrs by modified NCCLS M38-A method
Sporothrix schenckii [12] = test: Antifungal activity against Sporothrix schenckii P30019 isolate from cutaneous-lymphatic sporotrichosis patient after 72 hrs by Sensititre YeastOne method
Sporothrix schenckii [13] = test: Antifungal activity against Sporothrix schenckii P30019 isolate from cutaneous-lymphatic sporotrichosis patient after 72 hrs by ATB Fungus 2 method
Sporothrix schenckii [14] = test: Antifungal activity against Sporothrix schenckii P14954 isolate from cutaneous-lymphatic sporotrichosis patient after 72 hrs by modified NCCLS M38-A method
Sporothrix schenckii [15] = test: Antifungal activity against Sporothrix schenckii P14954 isolate from cutaneous-lymphatic sporotrichosis patient after 72 hrs by ATB Fungus 2 method
Sporothrix schenckii [16] = test: Antifungal activity against Sporothrix schenckii MRSS4 isolate from cutaneous-lymphatic sporotrichosis patient after 72 hrs by Sensititre YeastOne method
Sporothrix schenckii [17] = test: Antifungal activity against Sporothrix schenckii P24223 isolate from cutaneous-lymphatic sporotrichosis patient after 72 hrs by Sensititre YeastOne method
Sporothrix schenckii [18] = test: Antifungal activity against Sporothrix schenckii P24223 isolate from cutaneous-lymphatic sporotrichosis patient after 72 hrs by ATB Fungus 2 method
Sporothrix schenckii [19] = test: Antifungal activity against Sporothrix schenckii PSCC1 isolate from cutaneous-lymphatic sporotrichosis patient after 72 hrs by ATB Fungus 2 method
Sporothrix schenckii [20] = test: Antifungal activity against Sporothrix schenckii P24255 isolate from cutaneous-lymphatic sporotrichosis patient after 72 hrs by modified NCCLS M38-A method
Sporothrix schenckii [21] = test: Antifungal activity against Sporothrix schenckii P24255 isolate from cutaneous-lymphatic sporotrichosis patient after 72 hrs by Sensititre YeastOne method
Sporothrix schenckii [22] = test: Antifungal activity against Sporothrix schenckii P24255 isolate from cutaneous-lymphatic sporotrichosis patient after 72 hrs by ATB Fungus 2 method
Sporothrix schenckii [23] = test: Antifungal activity against Sporothrix schenckii P10012 isolate from cutaneous-lymphatic sporotrichosis patient after 72 hrs by modified NCCLS M38-A method
Sporothrix schenckii [24] = test: Antifungal activity against Sporothrix schenckii P1621 isolate from cutaneous-lymphatic sporotrichosis patient after 72 hrs by ATB Fungus 2 method
Sporothrix schenckii [25] = test: Antifungal activity against Sporothrix schenckii SSA29 isolate from cutaneous-lymphatic sporotrichosis patient after 72 hrs by Sensititre YeastOne method
Sporothrix schenckii [26] = test: Antifungal activity against Sporothrix schenckii P26187 isolate from cutaneous-lymphatic sporotrichosis patient after 72 hrs by Sensititre YeastOne method
Sporothrix schenckii [27] = test: Antifungal activity against Sporothrix schenckii P26187 isolate from cutaneous-lymphatic sporotrichosis patient after 72 hrs by ATB Fungus 2 method
Sporothrix schenckii [28] = test: Antifungal activity against Sporothrix schenckii PGAC0016 isolate from cutaneous-lymphatic sporotrichosis patient after 72 hrs by modified NCCLS M38-A method
Sporothrix schenckii [29] = test: Antifungal activity against Sporothrix schenckii PGAC0016 isolate from cutaneous-lymphatic sporotrichosis patient after 72 hrs by Sensititre YeastOne method
Sporothrix schenckii [30] = test: Antifungal activity against Sporothrix schenckii PGAC0016 isolate from cutaneous-lymphatic sporotrichosis patient after 72 hrs by ATB Fungus 2 method
Sporothrix schenckii [31] = test: Antifungal activity against Sporothrix schenckii PJRC002 isolate from cutaneous-lymphatic sporotrichosis patient after 72 hrs by modified NCCLS M38-A method
Sporothrix schenckii [32] = test: Antifungal activity against Sporothrix schenckii PJRC002 isolate from cutaneous-lymphatic sporotrichosis patient after 72 hrs by Sensititre YeastOne method
Sporothrix schenckii [33] = test: Antifungal activity against Sporothrix schenckii P14036 isolate from cutaneous-lymphatic sporotrichosis patient after 72 hrs by modified NCCLS M38-A method
Sporothrix schenckii [34] = test: Antifungal activity against Sporothrix schenckii P14036 isolate from cutaneous-lymphatic sporotrichosis patient after 72 hrs by Sensititre YeastOne method
Sporothrix schenckii [35] = test: Antifungal activity against Sporothrix schenckii P14036 isolate from cutaneous-lymphatic sporotrichosis patient after 72 hrs by ATB Fungus 2 method
Sporothrix schenckii [36] = test: Antifungal activity against Sporothrix schenckii P30915 isolate from cutaneous-lymphatic sporotrichosis patient after 72 hrs by modified NCCLS M38-A method
Sporothrix schenckii [37] = test: Antifungal activity against Sporothrix schenckii P30915 isolate from cutaneous-lymphatic sporotrichosis patient after 72 hrs by Sensititre YeastOne method
Sporothrix schenckii [38] = test: Antifungal activity against Sporothrix schenckii P30915 isolate from cutaneous-lymphatic sporotrichosis patient after 72 hrs by ATB Fungus 2 method
Sporothrix schenckii [39] = test: Antifungal activity against Sporothrix schenckii P3287 isolate from cutaneous-lymphatic sporotrichosis patient after 72 hrs by modified NCCLS M38-A method
Pichia kudriavzevii [40] = test: Antifungal activity against Candida krusei ATCC 6258 […] after 72 hrs by Sensititre YeastOne method; conditions: ATCC 6258, 72 h
Pichia kudriavzevii [41] = test: Antifungal activity against Candida krusei ATCC 6258 […] after 72 hrs by ATB Fungus 2 method; conditions: ATCC 6258, 72 h
Candida parapsilosis [42] = test: Antifungal activity against Candida parapsilosis ATCC 22019 […] after 72 hrs by modified NCCLS M38-A method; conditions: Lodderomyces parapsilosis, ATCC 22019, 72 h
Candida parapsilosis [43] = test: Antifungal activity against Candida parapsilosis ATCC 22019 […] after 72 hrs by ATB Fungus 2 method; conditions: Lodderomyces parapsilosis, ATCC 22019, 72 h
Sporothrix schenckii [44] = test: Antifungal activity against Sporothrix schenckii isolate from cutaneous-lymphatic sporotrichosis patient after 72 hrs by modified NCCLS M38-A method
Sporothrix schenckii [45] = test: Antifungal activity against Sporothrix schenckii isolate from cutaneous-lymphatic sporotrichosis patient after 72 hrs by Sensititre YeastOne method

C[C@@H]1[C@H](O)[C@@H](C)/C=C/C=C/C=C/C=C/C=C/C=C/C=C/[C@H](O[C@@H]2O[C@H](C)[C@@H](O)[C@H](N)[C@@H]2O)C[C@@H]2O[C@](O)(C[C@@H](O)C[C@@H](O)[C@H](O)CC[C@@H](O)C[C@@H](O)CC(=O)O[C@H]1C)C[C@H](O)[C@H]2C(=O)O [AMPHOTERICIN B]
0.125 µg/mL: MIC (Sporothrix schenckii [1]) | MIC (Sporothrix schenckii [29])
2 µg/mL: MIC (Sporothrix schenckii [20]) | MIC (Sporothrix schenckii [22])
4 µg/mL: MIC (Sporothrix schenckii [27]) | MIC (Sporothrix schenckii [31])
> 116 µg/mL: MIC90 (Sporothrix schenckii [44])
> 16 µg/mL: MIC (Sporothrix schenckii [6]) | MIC (Sporothrix schenckii [9]) | MIC (Sporothrix schenckii [33]) | MIC (Sporothrix schenckii [39])
0.25 µg/mL: MIC (Sporothrix schenckii [2]) | MIC (Sporothrix schenckii [14]) | MIC (Sporothrix schenckii [28]) | MIC (Sporothrix schenckii [36])
1 µg/mL: MIC (Sporothrix schenckii [4]) | MIC (Sporothrix schenckii [7]) | MIC (Sporothrix schenckii [8]) | MIC (Sporothrix schenckii [10]) | MIC (Sporothrix schenckii [11]) | MIC (Sporothrix schenckii [12]) | MIC (Sporothrix schenckii [13]) | MIC (Sporothrix schenckii [32]) | MIC (Sporothrix schenckii [35]) | MIC50 (Sporothrix schenckii [44]) | MIC90 (Sporothrix schenckii [45])
0.06 µg/mL: MIC (Sporothrix schenckii [5]) | MIC (Sporothrix schenckii [23]) | MIC (Sporothrix schenckii [25])
≤ 0.5 µg/mL: MIC (Sporothrix schenckii [3]) | MIC (Sporothrix schenckii [15]) | MIC (Sporothrix schenckii [18]) | MIC (Sporothrix schenckii [19]) | MIC (Sporothrix schenckii [24]) | MIC (Sporothrix schenckii [30]) | MIC (Sporothrix schenckii [38]) | MIC (Pichia kudriavzevii [41]) | MIC (Candida parapsilosis [43])
0.5 µg/mL: MIC (Sporothrix schenckii [16]) | MIC (Sporothrix schenckii [17]) | MIC (Sporothrix schenckii [21]) | MIC (Sporothrix schenckii [26]) | MIC (Sporothrix schenckii [34]) | MIC (Sporothrix schenckii [37]) | MIC (Pichia kudriavzevii [40]) | MIC (Candida parapsilosis [42]) | MIC50 (Sporothrix schenckii [45])

OC(Cn1cncn1)(Cn1cncn1)c1ccc(F)cc1F [FLUCONAZOLE]
> 256 µg/mL: MIC (Sporothrix schenckii [2]) | MIC (Sporothrix schenckii [16]) | MIC (Sporothrix schenckii [17]) | MIC (Sporothrix schenckii [21]) | MIC (Sporothrix schenckii [25]) | MIC (Sporothrix schenckii [29]) | MIC (Sporothrix schenckii [32]) | MIC (Sporothrix schenckii [34]) | MIC (Sporothrix schenckii [37]) | MIC50 (Sporothrix schenckii [45]) | MIC90 (Sporothrix schenckii [45])
128 µg/mL: MIC (Sporothrix schenckii [5]) | MIC (Sporothrix schenckii [7]) | MIC (Sporothrix schenckii [22]) | MIC (Sporothrix schenckii [26])
> 128 µg/mL: MIC (Sporothrix schenckii [3]) | MIC (Sporothrix schenckii [8]) | MIC (Sporothrix schenckii [10]) | MIC (Sporothrix schenckii [12]) | MIC (Sporothrix schenckii [13]) | MIC (Sporothrix schenckii [15]) | MIC (Sporothrix schenckii [18]) | MIC (Sporothrix schenckii [19]) | MIC (Sporothrix schenckii [24]) | MIC (Sporothrix schenckii [27]) | MIC (Sporothrix schenckii [30]) | MIC (Sporothrix schenckii [33]) | MIC (Sporothrix schenckii [35]) | MIC (Sporothrix schenckii [38])
32 µg/mL: MIC (Pichia kudriavzevii [41])
4 µg/mL: MIC (Candida parapsilosis [43])
1 µg/mL: MIC (Candida parapsilosis [42])
> 64 µg/mL: MIC (Sporothrix schenckii [1]) | MIC (Sporothrix schenckii [4]) | MIC (Sporothrix schenckii [6]) | MIC (Sporothrix schenckii [9]) | MIC (Sporothrix schenckii [11]) | MIC (Sporothrix schenckii [14]) | MIC (Sporothrix schenckii [20]) | MIC (Sporothrix schenckii [23]) | MIC (Sporothrix schenckii [28]) | MIC (Sporothrix schenckii [31]) | MIC (Sporothrix schenckii [36]) | MIC (Sporothrix schenckii [39]) | MIC50 (Sporothrix schenckii [44]) | MIC90 (Sporothrix schenckii [44])
64 µg/mL: MIC (Pichia kudriavzevii [40])

CCC(C)n1ncn(-c2ccc(N3CCN(c4ccc(OCC5COC(Cn6cncn6)(c6ccc(Cl)cc6Cl)O5)cc4)CC3)cc2)c1=O (stereo unspecified) [ITRACONAZOLE]
0.5 µg/mL: MIC (Sporothrix schenckii [4]) | MIC (Sporothrix schenckii [6]) | MIC (Sporothrix schenckii [9]) | MIC (Sporothrix schenckii [11]) | MIC (Sporothrix schenckii [14]) | MIC (Sporothrix schenckii [17]) | MIC (Sporothrix schenckii [20]) | MIC (Sporothrix schenckii [23]) | MIC (Sporothrix schenckii [28]) | MIC (Sporothrix schenckii [33]) | MIC (Sporothrix schenckii [36]) | MIC (Sporothrix schenckii [37]) | MIC (Pichia kudriavzevii [41]) | MIC (Candida parapsilosis [42]) | MIC50 (Sporothrix schenckii [44]) | MIC90 (Sporothrix schenckii [44])
0.13 µg/mL: MIC (Sporothrix schenckii [2]) | MIC (Sporothrix schenckii [26]) | MIC (Sporothrix schenckii [29]) | MIC (Sporothrix schenckii [32])
≤ 0.125 µg/mL: MIC (Candida parapsilosis [43])
2 µg/mL: MIC (Sporothrix schenckii [3]) | MIC (Sporothrix schenckii [18]) | MIC (Sporothrix schenckii [24]) | MIC (Sporothrix schenckii [27]) | MIC (Sporothrix schenckii [30]) | MIC (Sporothrix schenckii [38])
1 µg/mL: MIC (Sporothrix schenckii [8]) | MIC (Sporothrix schenckii [10]) | MIC (Sporothrix schenckii [13]) | MIC (Sporothrix schenckii [19]) | MIC (Sporothrix schenckii [22]) | MIC (Sporothrix schenckii [35]) | MIC (Pichia kudriavzevii [40])
0.25 µg/mL: MIC (Sporothrix schenckii [1]) | MIC (Sporothrix schenckii [7]) | MIC (Sporothrix schenckii [12]) | MIC (Sporothrix schenckii [16]) | MIC (Sporothrix schenckii [21]) | MIC (Sporothrix schenckii [25]) | MIC (Sporothrix schenckii [31]) | MIC (Sporothrix schenckii [34]) | MIC (Sporothrix schenckii [39]) | MIC50 (Sporothrix schenckii [45]) | MIC90 (Sporothrix schenckii [45])
4 µg/mL: MIC (Sporothrix schenckii [15])
0.06 µg/mL: MIC (Sporothrix schenckii [5])
